From patent US8106055B2, “Substituted amide compounds” (Gruenenthal GmbH, priority 2007, dated 2012)

Each molecule was assayed against T1, human bradykinin 1 receptor (B1R) (Homo sapiens, UniProt P46663) (assay: Functional investigation on the human bradykinin 1 receptor (B1R), Ca2+ FLIPR assay in CHO K1 hB1R cells). Conditions: B1R antagonism human; test substance 10 μM; Ca2+ FLIPR, CHO K1 hB1R cells.
T1 construct: expressed in transfected cells; host or cells: CHO K1 cells
T1 sequence (P46663 1-353): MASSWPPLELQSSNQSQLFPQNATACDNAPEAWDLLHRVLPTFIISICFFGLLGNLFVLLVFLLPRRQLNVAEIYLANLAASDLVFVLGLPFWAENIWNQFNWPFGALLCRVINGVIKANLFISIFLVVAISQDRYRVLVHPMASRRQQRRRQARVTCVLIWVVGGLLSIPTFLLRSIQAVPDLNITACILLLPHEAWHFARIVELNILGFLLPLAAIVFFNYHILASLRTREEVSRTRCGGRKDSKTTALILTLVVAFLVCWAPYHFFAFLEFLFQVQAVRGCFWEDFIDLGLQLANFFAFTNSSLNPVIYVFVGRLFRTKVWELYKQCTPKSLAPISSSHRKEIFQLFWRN
Assay type: cell-based
Outline: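 Cells were dye-loaded with Fluo-4 plus probenecid, then test substances added and Ca2+ influx compared with agonist control for % activation. After 10-20 min, EC80 agonist (Lys-Des-Arg9-bradykinin human; Des-Arg9-bradykinin rat) was applied; suppression gave % inhibition and IC50 values.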

Q: How did the “B1R Ant. h [10 μM] % Inhibition” value turn out when `CN(C)C(c1ccccc1)C1CCC(NC(=O)COCC2CCCN2S(=O)(=O)c2c(Cl)cc(Cl)cc2Cl)CC1` (stereo not shown) [Example 611, N-[4-(Dimethylaminophenylmethyl)-cyclohexyl]-2-[1-(2,4,6-trichlorobenzenesulfonyl)-pyrrolidin-2-ylmethoxy]-acetamide] was run?
A: Its value is 97%.

Q: Which “B1R Ant. h [10 μM] % Inhibition” value does the source give for `COc1ccc(S(=O)(=O)N2Cc3ccccc3CC2COCC(=O)NC2CCC(C(c3ccc(F)cc3)N(C)C)CC2)cc1` (stereo not shown) [Example 234] here?
A: Its value is 50%.

Q: For `COc1cc(C)c(S(=O)(=O)N2CCC(OCC(=O)NCCC3CCC(C(c4cccc(F)c4)N(C)C)CC3)CC2)c(C)c1C` (stereo not shown) [Example 232], which “B1R Ant. h [10 μM] % Inhibition” value is on record?
A: Its value is 17%.

Q: With `COc1ccc(S(=O)(=O)N2CCCCC2COCC(=O)NC2CCC(C(c3cccc(F)c3)N(C)C)CC2)cc1` (stereo not shown) [Example 255] as the molecule, how does the “B1R Ant. h [10 μM] % Inhibition” value read?
A: The value was 37%.

Q: For `CN(C)C(c1cccc(F)c1)C1CCC(NC(=O)COCC2CCCN2S(=O)(=O)c2ccc(Cl)c(Cl)c2)CC1` (stereo not shown) [Example 211], which “B1R Ant. h [10 μM] % Inhibition” value is on record?
A: The value was 33%.

Q: `COc1cc(C)c(S(=O)(=O)N(C)CCOCC(=O)NC2CCC(C(c3ccccc3)N(C)C)CC2)c(C)c1` (stereo not shown) [Example 239] was tested. Which “B1R Ant. h [10 μM] % Inhibition” value did it give?
A: The value was 104%.

Q: `CN(C)C(c1ccccc1)C1CCC(CNC(=O)COCCN(C)S(=O)(=O)c2c(Cl)cc(Cl)cc2Cl)CC1` (stereo not shown) [Example 614, N-[4-(dimethylaminophenylmethyl)-cyclohexylmethyl]-2-{2-[(2,4,6-trichlorobenzenesulfonyl)-methylamino]-ethoxy}-acetamide] was tested. Which “B1R Ant. h [10 μM] % Inhibition” value did it give?
A: The value was 102%.

Q: With `CN(C)C(c1cccs1)C1CCC(CNC(=O)COC2CCN(S(=O)(=O)c3ccccc3)CC2)CC1` (stereo not shown) [Example 276] as the molecule, how does the “B1R Ant. h [10 μM] % Inhibition” value read?
A: The value was −12%.

Q: How did the “B1R Ant. h [10 μM] % Inhibition” value turn out when `CN(C)C(c1cccc(F)c1)C1CCC(CCNC(=O)COCCN(C)S(=O)(=O)c2ccc(F)cc2)CC1` (stereo not shown) [Example 218] was run?
A: Its value is 7%.

Q: With `CN(C)C(c1cccc(F)c1)C1CCC(CNC(=O)COC2CCN(S(=O)(=O)c3ccc(Cl)cc3)C2)CC1` (stereo not shown) [Example 258] as the molecule, how does the “B1R Ant. h [10 μM] % Inhibition” value read?
A: The value was −12%.

Q: For `Cc1ccc(S(=O)(=O)N2CCC(OCC(=O)NCCC3CCC(C(c4cccs4)N(C)C)CC3)C2)cc1` (stereo not shown) [Example 272], which “B1R Ant. h [10 μM] % Inhibition” value is on record?
A: Its value is 20%.

Q: For `CN(C)C(c1cccc(F)c1)C1CCC(NC(=O)COC2CCN(S(=O)(=O)c3ccccc3)C2)CC1` (stereo not shown) [Example 271], which “B1R Ant. h [10 μM] % Inhibition” value is on record?
A: The value was −7%.

Q: How did the “B1R Ant. h [10 μM] % Inhibition” value turn out when `Cc1ccc(S(=O)(=O)N2CCC(OCC(=O)NCCC3CCC(C(c4cccc(F)c4)N(C)C)CC3)C2)cc1` (stereo not shown) [Example 216] was run?
A: The value was 20%.

Q: How did the “B1R Ant. h [10 μM] % Inhibition” value turn out when `CCN(CCOCC(=O)NCCC1CCC(C(c2cccc(F)c2)N(C)C)CC1)S(=O)(=O)c1c(C)cc(OC)c(C)c1C` (stereo not shown) [Example 209] was run?
A: Its value is 64%.

Q: `CN(C)C(c1cccc(F)c1)C1CCC(NC(=O)COCCN(C)S(=O)(=O)c2ccc(OC(F)(F)F)cc2)CC1` (stereo not shown) [Example 246] was tested. Which “B1R Ant. h [10 μM] % Inhibition” value did it give?
A: Its value is 10%.

Q: Which “B1R Ant. h [10 μM] % Inhibition” value does the source give for `COc1cc(C)c(S(=O)(=O)N2CCC(OCC(=O)NCCC3CCC(C(c4cccc(F)c4)N(C)C)CC3)C2)c(C)c1C` (stereo not shown) [Example 253] here?
A: Its value is 47%.

Q: `Cc1ccc(S(=O)(=O)N(C)CCOCC(=O)NCC2CCC(C(c3cccc(F)c3)N(C)C)CC2)cc1` (stereo not shown) [Example 227] was tested. Which “B1R Ant. h [10 μM] % Inhibition” value did it give?
A: Its value is 6%.

Q: `CN(C)C(c1cccc(F)c1)C1CCC(NC(=O)COC2CCN(S(=O)(=O)c3ccc(Cl)cc3)C2)CC1` (stereo not shown) [Example 204] was tested. Which “B1R Ant. h [10 μM] % Inhibition” value did it give?
A: Its value is 2%.

Q: `Cc1cc(C)c(S(=O)(=O)N2CCC(OCC(=O)NCCC3CCC(C(c4cccc(F)c4)N(C)C)CC3)C2)c(C)c1` (stereo not shown) [Example 264] was tested. Which “B1R Ant. h [10 μM] % Inhibition” value did it give?
A: Its value is 77%.

Q: `COc1cc(C)c(S(=O)(=O)N2CCN(CCOCC(=O)NC3CCC(C(c4ccc(F)cc4)N(C)C)CC3)CC2)c(C)c1C` (stereo not shown) [Example 222] was tested. Which “B1R Ant. h [10 μM] % Inhibition” value did it give?
A: Its value is 54%.

Q: For `CN(C)C(c1ccc(Cl)cc1)C1CCC(CNC(=O)COC2CCCCC2N(C)S(=O)(=O)c2ccc(Cl)c(Cl)c2)CC1` (stereo not shown) [Example 269], which “B1R Ant. h [10 μM] % Inhibition” value is on record?
A: Its value is 7%.

Q: For `CN(C)C(c1cccc(F)c1)C1CCC(CCNC(=O)COC2CCN(S(=O)(=O)c3ccc(Cl)cc3)C2)CC1` (stereo not shown) [Example 247], which “B1R Ant. h [10 μM] % Inhibition” value is on record?
A: The value was 4%.

Q: For `CN(C)C(c1cccc(F)c1)C1CCC(NC(=O)COC2CCCN(S(=O)(=O)c3ccccc3)C2)CC1` (stereo not shown) [Example 277], which “B1R Ant. h [10 μM] % Inhibition” value is on record?
A: Its value is 4%.

Q: `CN(C)C(c1cccc(F)c1)C1CCC(CNC(=O)COCC2CCCN(S(=O)(=O)c3ccccc3)C2)CC1` (stereo not shown) [Example 220] was tested. Which “B1R Ant. h [10 μM] % Inhibition” value did it give?
A: The value was 6%.

Q: For `CN(C)C(c1cccc(F)c1)C1CCC(CNC(=O)COC2CCN(S(=O)(=O)c3ccc(F)cc3)C2)CC1` (stereo not shown) [Example 275], which “B1R Ant. h [10 μM] % Inhibition” value is on record?
A: Its value is 15%.

Q: With `COc1cc(C)c(S(=O)(=O)N(CCOCC(=O)NCC2CCC(C(c3ccccc3)N(C)C)CC2)Cc2ccccc2)c(C)c1C` (stereo not shown) [Example 201] as the molecule, how does the “B1R Ant. h [10 μM] % Inhibition” value read?
A: The value was 76%.

Q: `COc1cc(C)c(S(=O)(=O)N(C)CCOCC(=O)NCC2CCC(C(c3cccc(F)c3)N(C)C)CC2)c(C)c1` (stereo not shown) [Example 248] was tested. Which “B1R Ant. h [10 μM] % Inhibition” value did it give?
A: The value was 104%.

Q: With `COc1ccc(S(=O)(=O)N2CCCCC2COCC(=O)NC2CCC(C(c3cccs3)N(C)C)CC2)cc1OC` (stereo not shown) [Example 261] as the molecule, how does the “B1R Ant. h [10 μM] % Inhibition” value read?
A: Its value is −28%.

Q: With `CN(C)C(c1ccccc1)C1CCC(CNC(=O)COC2CCN(S(=O)(=O)c3ccc(F)cc3)C2)CC1` (stereo not shown) [Example 219] as the molecule, how does the “B1R Ant. h [10 μM] % Inhibition” value read?
A: Its value is −1%.

Q: How did the “B1R Ant. h [10 μM] % Inhibition” value turn out when `COc1cc(C)c(S(=O)(=O)N2CCC(OCC(=O)NC3CCC(C(c4cccc(F)c4)N(C)C)CC3)C2)c(C)c1` (stereo not shown) [Example 251] was run?
A: The value was 81%.

Q: Which “B1R Ant. h [10 μM] % Inhibition” value does the source give for `COc1cc(C)c(S(=O)(=O)N2CCC(OCC(=O)NCC3CCC(C(c4cccc(F)c4)N(C)C)CC3)C2)c(C)c1C` (stereo not shown) [Example 252] here?
A: The value was 59%.

Q: With `CN(C)C(c1cccc(F)c1)C1CCC(CCNC(=O)COCC2CCCN2S(=O)(=O)c2ccc(Cl)c(Cl)c2)CC1` (stereo not shown) [Example 202] as the molecule, how does the “B1R Ant. h [10 μM] % Inhibition” value read?
A: Its value is 48%.

Q: For `CN(C)C(c1ccc(F)cc1)C1CCC(CNC(=O)COCC2CCCN2S(=O)(=O)c2ccc(Cl)c(Cl)c2)CC1` (stereo not shown) [Example 267], which “B1R Ant. h [10 μM] % Inhibition” value is on record?
A: The value was 68%.

Q: How did the “B1R Ant. h [10 μM] % Inhibition” value turn out when `Cc1ccc(S(=O)(=O)N(C)CCOCC(=O)NCCC2CCC(C(c3cccc(F)c3)N(C)C)CC2)cc1` (stereo not shown) [Example 240] was run?
A: The value was 2%.

Q: For `COc1ccc(S(=O)(=O)N2CCCCC2CCOCC(=O)NCCC2CCC(C(c3cccc(F)c3)N(C)C)CC2)cc1` (stereo not shown) [Example 213], which “B1R Ant. h [10 μM] % Inhibition” value is on record?
A: Its value is 78%.

Same assay, conditions: CHO-K1, B1R antagonism human; test substance 10 μM; Ca2+ FLIPR, CHO K1 hB1R cells; read-out: B1R Ant. h [10 μM] % Inhibition

Q: `CN(C)C(c1ccccc1)C1CCC(NC(=O)COCCN(C)S(=O)(=O)c2c(Cl)cc(Cl)cc2Cl)C1` (stereo not shown) [Example 615, N-[3-(dimethylaminophenylmethyl)-cyclopentyl]-2-{2-[(2,4,6-trichlorobenzenesulfonyl)-methylamino]-ethoxy}-acetamide] was tested. Which inhibition at 10 µM did it give?
A: The inhibition at 10 µM was 95%.

Q: How did the inhibition at 10 µM turn out when `CN(C)C(c1ccccc1)C1CCC(NC(=O)COC2CCCN(S(=O)(=O)c3c(Cl)cc(Cl)cc3Cl)C2)CC1` (stereo not shown) [Example 608, N-[4-(dimethylaminophenylmethyl)-cyclohexyl]-2-[1-(2,4,6-trichlorobenzenesulfonyl)-piperidin-3-yloxy]-acetamide] was run?
A: The inhibition at 10 µM was 78%.
